# Results taken from patent US20180116849A1, “SYSTEMS AND METHODS FOR DETERMINING FAILURE OF INTRAGASTRIC DEVICES” (Obalon Therapeutics, Inc., priority 2015, published 2018).
# Entries after “also recorded” stand apart in the source; their conditions may differ. Where a name gives a salt, the structure may show the parent alone.
# Columns and labels:
# [1] = Colour, fluorescence or emission of the dye; format: physicochemical; details: dyes identified as indicator for balloon rupture
# Description: Experiments were conducted to identify appropriate dyes that may be incorporated into their gastric balloon device to function as an indicator for balloon rupture. The characteristics of the dyes considered for selection included the following: acceptable toxicology profile, acceptable solubility, intensely absorbing (high color intensity), stable in the gastric environment, and stable during excretion so as to be visually identified by the patient or a caregiver.
# rat = details: cited from earlier work
# mice = details: The Merck Index; cited from earlier work
# [2] = cited from earlier work; for Solubility in water: The Merck Index
# [3] = after the consumption of asparagus; cited from earlier work
# [4] = cited from earlier work; for Side-effect of turning urine a color: drugs that may be a source of false positives for balloon leakage; for Urine color produced: humans / patients exposed to the dye
# [5] = Tables 4 and 5; cited from earlier work
# [6] = The Merck Index; cited from earlier work
# [7] = Meng et al. 2013, cited from earlier work
# [8] = Tables 4 and 5; cited from earlier work; remark: listed apart in the source
# patients = details: The Merck Index; cited from earlier work
molecule,measurement,setting,value
O=C(O)C1=C/C(=C/C=[N+]2/c3cc(O)c(OC4OC(CO)[C@@H](O)C(O)C4O)cc3CC2C(=O)[O-])CC(C(=O)O)N1 (stereo in doubt) [betanin],Emission colour of dye identified as suitable,[1],red emission
"CN(C)CCC=C1c2ccccc2CCc2ccccc21 [Amitriptyline Hydrochloride, reference compound]",LD50 (rats),"rat; rats, The Merck Index",380 mg/kg
same,LD50 (mice),mice,350 mg/kg
same,Solubility in chloroform (in words),"[2]; chloroform, salt",Salt is freely soluble
same,Solubility in water (in words),[2]; water,Salt is freely soluble
O=C(O)C1CSSC1 [Asparagusic Acid],Urine odor,[3],characteristic odor to urine
"Cc1cc2nc3c(=O)[nH]c(=O)nc-3n(C[C@H](O)[C@H](O)[C@H](O)CO)c2cc1C [B vitamins (e.g. Riboflavin), Riboflavin]",Solubility,[2]; water,Solubility: 1 g in 3 L g in 3 L water
COc1cccc2c1C(=O)c1c(O)c3c(c(O)c1C2=O)C[C@@](O)(C(C)=O)C[C@@H]3O[C@H]1C[C@H](N)[C@H](O)[C@H](C)O1 [Daunorubicin],Side-effect of turning urine a color,[4],red
CCN(Cc1cccc(S(=O)(=O)O)c1)c1ccc(C(=C2C=CC(=[N+](CC)Cc3cccc(S(=O)(=O)O)c3)C=C2)c2ccc(O)cc2S(=O)(=O)[O-])cc1 [Fast Green FCF],Toxicology (in words),[5],may cause eye injury
same,LD50 (rat),"rat; rat, in vivo",LD50 (rat) > 2 g/kg;
same,Emission colour of dye identified as suitable,[1],green emission
same,Solubility in alcohols (in words),[2]; alcohols,"Very soluble in water,"
same,Solubility in other organic solvents (in words),[2]; other organic solvents,"alcohols, insoluble in other"
same,Solubility in water (in words),[2]; water,"Very soluble in water,"
O=C1/C(=C2\Nc3ccc(S(=O)(=O)[O-])cc3C2=O)Nc2ccc(S(=O)(=O)[O-])cc21.[Na+].[Na+] [Indigo carmine],"LD50 (rat, oral)","rat; rat, oral, Baker MSDS sheet",oral) = 2 g/kg (Baker
same,pH indicator-blue at pH,[6],pH indicator-blue at pH < 11
same,Emission colour of dye identified as suitable,[1],blue emission
same,Solubility in water,[2],1.0 g per 100 mL of water
CN(C)c1ccc2c(c1)Sc1cc(N(C)C)ccc1N2 [Leukomethylene blue],Excretion in urine,[7]; urine,excreted mostly unaltered
Cc1cc2nc3[nH]c(=O)[nH]c(=O)c3nc2cc1C [Lumichrome],Toxicology (in words),[5],None
same,Urine color produced,[4],blue-green urine
same,Colour / fluorescence (Chemical Properties),[8],Blue fluorescence
same,"Solubility (in words, solvent not stated)",[2],poor solubility
same,Solubility in hot water (in words),[2]; hot water,Sparingly soluble in hot water
Cc1cc2nc3c(=O)[nH]c(=O)nc-3n(C)c2cc1C [Lumiflavine],Toxicology (in words),[5],None
same,Urine color produced,[4],blue-green urine
same,Colour / fluorescence (Chemical Properties),[8],Green fluorescence
same,"Solubility (in words, solvent not stated)",[2],poor solubility
same,Solubility in water (in words),[2]; water,Very sparingly soluble in
"COc1ccccc1OCC(O)COC(N)=O (stereo not drawn) [Methocarbamol, reference compound]",Toxicology: tolerability in patients,patients,Generally well-
same,Water soluble,[2]; @ 20 ° C.,Water soluble 2.5 g/ g/100 mL
COc1ccc2[nH]c([S+]([O-])Cc3ncc(C)c(OC)c3C)nc2c1 (stereo not drawn) [Omeprazole],Side-effect of turning urine a color,[4],blue green
O=C(O)c1cc(O)c2c(c1)[C@H]([C@H]1c3cc(C(=O)O)cc(O)c3C(=O)c3c(O[C@@H]4O[C@H](CO)[C@@H](O)[C@H](O)[C@H]4O)cccc31)c1cccc(O[C@@H]3O[C@H](CO)[C@@H](O)[C@H](O)[C@H]3O)c1C2=O [Sennoside A],Solubility in water (in words),[2]; water,insoluble in water.
O=C(O)c1cc(O)c2c(c1)[C@@H]([C@H]1c3cc(C(=O)O)cc(O)c3C(=O)c3c(O[C@@H]4O[C@H](CO)[C@@H](O)[C@H](O)[C@H]4O)cccc31)c1cccc(O[C@@H]3O[C@H](CO)[C@@H](O)[C@H](O)[C@H]3O)c1C2=O [Sennoside B],Solubility in water compared with Sennoside A,"[2]; water, Merck",Sennoside B is more
"Nc1nc(N)c2nc(-c3ccccc3)c(N)nc2n1 [Triamterene, reference compound]",Toxicology: tolerability in patients,patients,Generally well-
same,Emission colour of dye identified as suitable,[1],blue emission
same,Solubility in water,[2],1 part soluble in 1000 part soluble in 1000 parts water
CCC(=O)O[C@@H](O[P@](=O)(CCCCc1ccccc1)CC(=O)N1C[C@H](C2CCCCC2)C[C@H]1C(=O)O)C(C)C [fosinopril],Side-effect of turning urine a color,[4],blue green
CN(C)c1ccc2nc3ccc(N(C)C)cc3[s+]c2c1.[Cl-] [methylene blue],Urine color produced,[4],blue-green discoloration of their urine; also recorded: blue-green color
same,Conversion on passage through the gastrointestinal tract,[7]; gastrointestinal tract,reduced to leukomethylene blue
Nc1ccc(/N=N/c2ccccc2)c(N)n1 [phenazopyridine],Side-effect of turning urine a color,[4],red
CC[C@H](C)C(=O)O[C@H]1C[C@H](O)C=C2C=C[C@H](C)[C@H](CC[C@@H](O)C[C@@H](O)CC(=O)O)[C@H]21 [pravastatin],Side-effect of turning urine a color,[4],blue green
CC(C)c1cccc(C(C)C)c1O [propofol],Side-effect of turning urine a color,[4],green colored urine
CO[C@H]1/C=C/O[C@@]2(C)Oc3c(C)c(O)c4c(O)c(c(/C=N/N5CCN(C)CC5)c(O)c4c3C2=O)NC(=O)/C(C)=C\C=C\[C@H](C)[C@H](O)[C@@H](C)[C@@H](O)[C@@H](C)[C@H](OC(C)=O)[C@@H]1C [rifampin],Side-effect of turning urine a color,[4],red
Betalain [Betalain (including betanin)],Colour / fluorescence (Chemical Properties),[8],Colored Red
